In patent US12146004B2, “Polymyxin compounds and uses thereof” (priority 2014, dated 2024):
≈ marks a conversion by molar mass, not a printed value. Numbered stars: 1 amine (or outer) side, 2 acyl side, 3 side chain; on linkers, the order of the positions; unused ones are H or OH. Bridge positions count the residues as written; N and C are the ends. Square brackets hold non-standard residues; d marks the D form. Peptide text beside a SMILES is read from it. * marks the point of attachment. ξ: configuration not given here. X17 = CCCCCCN([C@@H](CCN)C(=O)[*:2])[*:1]; X10 = NC[C@H](OCc1ccc(Cl)cc1)C(=O)*; dCha = N[C@H](CC1CCCCC1)C(=O)O; Thr(3ξ) = CC(O)[C@H](N)C(=O)O; X21 = NCC(CC1CCCCC1)C(=O)*; X24 = NCCC(Cc1ccsc1)C(=O)*; Dab = NCC[C@H](N)C(=O)O; Dap = NC[C@H](N)C(=O)O

Legend:
Type in all cases: cell-based
Pseudomonas aeruginosa = tested on: Pseudomonas aeruginosa
Procedure: (§1) To evaluate the potency and spectrum of the compounds, susceptibility testing was performed against up to nine strains of each of the Gram negative pathogens, Escherichia coli, Pseudomonas aeruginosa, Klebsiella pneumoniae and Acinetobacter baumannii.
(§2) The values in Table 2 are MIC (μg/mL) against strains of E. coli, K. pneumoniae, P. aeruginosa and A. baumanii, including strains which show elevated MICs to Polymyxin.
(§3) The values in Table 2A are MIC (μg/mL).
(§4) The in vitro activity of compounds 26 and C7 (FADDI-02) against resistant bacterial strains was compared. The resistant strains included including Escherichia coli, Pseudomonas aeruginosa, Klebsiella pneumoniae and Acinetobacter baumannii strains. The data is provided in Table 2C, where the strains are identified. The values in Table 2 are MIC (μg/mL).

Klebsiella pneumoniae = tested on: Klebsiella pneumoniae
Procedure: as §1, §2, §3, §4

Escherichia coli = tested on: Escherichia coli
Procedure: as §1, §2, §3, §4

Acinetobacter baumannii = tested on: Acinetobacter baumannii
Procedure: as §1, §2, §3, §4

Row | MIC P. aeruginosa 068 (Pseudomonas aeruginosa) [µg/mL] | MIC P. aeruginosa 070 (Pseudomonas aeruginosa) [µg/mL] | MIC P. aeruginosa ATCC 27853 (Pseudomonas aeruginosa) [µg/mL] | MIC P. aeruginosa CCUG 59347 (Pseudomonas aeruginosa) [µg/mL] | MIC K. pneumoniae 063 (Klebsiella pneumoniae) [µg/mL] | MIC K. pneumoniae 065 (Klebsiella pneumoniae) [µg/mL] | MIC K. pneumoniae ATCC 4352 (Klebsiella pneumoniae) [µg/mL] | MIC K. pneumoniae ATCC 13882 (Klebsiella pneumoniae) [µg/mL] | MIC E. coli 058 (Escherichia coli) [µg/mL] | MIC E. coli 061 (Escherichia coli) [µg/mL] | MIC E. coli ATCC 25922 (Escherichia coli) [µg/mL] | MIC E. coli NCTC 9001 (Escherichia coli) [µg/mL] | MIC A. baumanii 053 (Acinetobacter baumannii) [µg/mL] | MIC A. baumanii 056 (Acinetobacter baumannii) [µg/mL] | MIC A. baumanii ATCC BAA-747 (Acinetobacter baumannii) [µg/mL] | MIC A. baumanii NCTC 13424 (Acinetobacter baumannii) [µg/mL] | Structure (SMILES) | further results
1 | 2 (≈ 1.71 µM) | 2 (≈ 1.71 µM) | 0.125 (≈ 0.107 µM) | 0.25 (≈ 0.214 µM) | 16 (≈ 13.7 µM) | 4 (≈ 3.43 µM) | 0.25 (≈ 0.214 µM) | 0.125 (≈ 0.107 µM) | 1 (≈ 0.857 µM) | 16 (≈ 13.7 µM) | 0.125 (≈ 0.107 µM) | 0.03 (≈ 0.0257 µM) | 32 (≈ 27.4 µM) | 8 (≈ 6.86 µM) | 0.125 (≈ 0.107 µM) | 0.125 (≈ 0.107 µM) | CC(C)C[C@@H]1NC(=O)[C@@H](CC2CCCCC2)NC(=O)[C@H](CCN)NC(=O)[C@@H](NC(=O)[C@H](CN)NC(=O)[C@@H](NC(=O)[C@H](CN)OCc2ccc(Cl)cc2)[C@@H](C)O)CCNC(=O)[C@H]([C@@H](C)O)NC(=O)[C@H](CCN)NC(=O)[C@H](CCN)NC1=O [Example 81, (S)-3-amino-2-((4-chlorobenzyl)oxy) propanoyl L-Thr-L-Dap-polymyxin [D-cyclohexylalanine-6]heptapeptide] (X10-T[Dap][Dab][Dab][dCha]L[Dab][Dab]T; lactam 3-C) | 
2 | 1 (≈ 0.88 µM) | 1 (≈ 0.88 µM) | 0.25 (≈ 0.22 µM) | 0.5 (≈ 0.44 µM) | 16 (≈ 14.1 µM) | 1 (≈ 0.88 µM) |  | 0.25 (≈ 0.22 µM) | 2 (≈ 1.76 µM) | 16 (≈ 14.1 µM) | 0.125 (≈ 0.11 µM) |  | >64 | 64 (≈ 56.3 µM) | 0.25 (≈ 0.22 µM) | 0.25 (≈ 0.22 µM) | CC(C)C[C@@H]1NC(=O)[C@@H](CC2CCCCC2)NC(=O)[C@H](CCN)NC(=O)[C@@H](NC(=O)[C@H](CN)NC(=O)[C@@H](NC(=O)C(CCN)Cc2ccsc2)[C@@H](C)O)CCNC(=O)[C@H]([C@@H](C)O)NC(=O)[C@H](CCN)NC(=O)[C@H](CCN)NC1=O (stereo partly drawn) [Example 68, 4-amino-2-(thiophen-3-ylmethyl)butanoyl L-Thr-L-Dap-polymyxin [D-cyclohexylalanine]-6 heptapeptide.] (X24-T[Dap][Dab][Dab][dCha]L[Dab][Dab]T; lactam 3-C) | 
3 | 2 (≈ 1.78 µM) | 2 (≈ 1.78 µM) | 0.5 (≈ 0.445 µM) | 1 (≈ 0.891 µM) | 16 (≈ 14.3 µM) | 1 (≈ 0.891 µM) |  | 0.5 (≈ 0.445 µM) | 2 (≈ 1.78 µM) | 16 (≈ 14.3 µM) | 0.5 (≈ 0.445 µM) |  | 32 (≈ 28.5 µM) | 16 (≈ 14.3 µM) | 0.25 (≈ 0.223 µM) | 0.5 (≈ 0.445 µM) | CC(C)C[C@@H]1NC(=O)[C@@H](CC2CCCCC2)NC(=O)[C@H](CCN)NC(=O)[C@@H](NC(=O)[C@H](CN)NC(=O)[C@@H](NC(=O)C(CN)CC2CCCCC2)C(C)O)CCNC(=O)[C@H]([C@@H](C)O)NC(=O)[C@H](CCN)NC(=O)[C@H](CCN)NC1=O (stereo partly drawn) [Example 31, 3-amino-2-(cyclohexylmethyl) propanoyl L-Thr-L-Dap-polymyxin [D-cyclohexylalanine]-6 heptapeptide] (X21-[Thr(3ξ)][Dap][Dab][Dab][dCha]L[Dab][Dab]T; lactam 3-C) | 
4 | 32 (≈ 27.7 µM) | 64 (≈ 55.4 µM) | 0.5 (≈ 0.433 µM) |  | >64 | >64 | 0.5 (≈ 0.433 µM) |  | 32 (≈ 27.7 µM) | >64 | 1 (≈ 0.866 µM) |  | >64 | >64 | >8 |  | CC(C)CC(CN)C(=O)N[C@H](C(=O)N[C@@H](CN)C(=O)N[C@H]1CCNC(=O)[C@H]([C@@H](C)O)NC(=O)[C@H](CCN)NC(=O)[C@H](CCN)NC(=O)[C@H](CC(C)C)NC(=O)[C@@H](Cc2ccc(Br)cc2)NC(=O)[C@H](CCN)NC1=O)C(C)O (single isomer, unassigned; isomer 1) [Example 13, 2-aminomethyl-4-methyl pentanoyl polymyxin L-Thr-L-Dap-polymyxin [D-(4-bromo Phe)]-6]heptapeptide. Isomer 1] | MIC K. pneumoniae 062 (Klebsiella pneumoniae): >64 µg/mL; MIC K. pneumoniae 064 (Klebsiella pneumoniae): >64 µg/mL; MIC K. pneumoniae 066 (Klebsiella pneumoniae): >64 µg/mL; MIC K. pneumoniae 067 (Klebsiella pneumoniae): >64 µg/mL; MIC E. coli 059 (Escherichia coli): 32 µg/mL (≈ 27.7 µM); MIC E. coli 060 (Escherichia coli): 32 µg/mL (≈ 27.7 µM)
5 | 4 (≈ 3.43 µM) | 4 (≈ 3.43 µM) | 0.125 (≈ 0.107 µM) | 0.5 (≈ 0.429 µM) | 16 (≈ 13.7 µM) | 1 (≈ 0.858 µM) |  | 0.25 (≈ 0.215 µM) | 2 (≈ 1.72 µM) | 16 (≈ 13.7 µM) | 0.25 (≈ 0.215 µM) | 0.06 (≈ 0.0515 µM) | 8 (≈ 6.87 µM) | 4 (≈ 3.43 µM) | 0.125 (≈ 0.107 µM) | 0.25 (≈ 0.215 µM) | CC(C)C[C@@H]1NC(=O)[C@@H](CC2CCCCC2)NC(=O)[C@H](CCN)NC(=O)[C@@H](NC(=O)[C@H](CCN)NC(=O)[C@@H](NC(=O)C(CCN)c2cccc(Cl)c2)[C@@H](C)O)CCNC(=O)[C@H]([C@@H](C)O)NC(=O)[C@H](CCN)NC(=O)[C@H](CCN)NC1=O (single isomer, unassigned; isomer 2) [Example 55, 4-amino-2-(3-chlorophenyl) butanoyl polymyxin [D-cyclohexylalanine]-6 nonapeptide. isomer 2] | 
6 | 2 (≈ 1.76 µM) | 2 (≈ 1.76 µM) | 0.25 (≈ 0.219 µM) | 0.25 (≈ 0.219 µM) | 32 (≈ 28.1 µM) | 2 (≈ 1.76 µM) |  | 0.5 (≈ 0.439 µM) | 2 (≈ 1.76 µM) | 16 (≈ 14 µM) | 0.5 (≈ 0.439 µM) | 0.125 (≈ 0.11 µM) | 64 (≈ 56.2 µM) | 64 (≈ 56.2 µM) | 0.5 (≈ 0.439 µM) | 0.25 (≈ 0.219 µM) | CCCCCCN[C@@H](CCN)C(=O)N[C@H](C(=O)N[C@@H](CN)C(=O)N[C@H]1CCNC(=O)[C@H]([C@@H](C)O)NC(=O)[C@H](CCN)NC(=O)[C@H](CCN)NC(=O)[C@H](CC(C)C)NC(=O)[C@@H](CC2CCCCC2)NC(=O)[C@H](CCN)NC1=O)C(C)O (stereo partly drawn) [Example 49, (S)-4-amino-2-(hexylamino) butanoyl L-Thr-L-Dap-polymyxin [D-cyclohexylalanine]-6 heptapeptide.] (H-[X17][Thr(3ξ)][Dap][Dab][Dab][dCha]L[Dab][Dab]T; lactam 4-C) | 
